In article PMC8305236, “New Broth Macrodilution Volatilization Method for Antibacterial Susceptibility Testing of Volatile Agents and Evaluation of Their Toxicity Using Modified MTT Assay In Vitro” (Molecules, 2021):
Converted amounts (≈) assume the structure as drawn. Like-named read-outs stand apart in the source and are kept apart here.

How the values were obtained:
[1] = system: Staphylococcus aureus ATCC 29213; test: broth macrodilution volatilization method (liquid and vapor phase MIC); format: cell-based
Source text: (§1) The following four bacterial standard strains from the American Type Culture Collection (ATCC, Manassas, VA, USA) were used: Haemophilus influenzae ATCC 49247, Staphylococcus aureus ATCC 29213, Streptococcus pneumoniae ATCC 49619, and Streptococcus pyogenes ATCC 19615. Cultivation and assay media (broth/agar) were Mueller–Hinton (MH) complemented by Haemophilus Tested Medium (H. influenzae), MH (S. aureus), and Brain Heart Infusion (S. pneumoniae and S. pyogenes). The pH of the broths was equilibrated to a final value of 7.6 using Trizma base (Sigma-Aldrich, Praha, Czech Republic). […] cultivation media were purchased from Oxoid (Basingstoke, UK).
(§2) Stock cultures of bacterial strains were cultivated in broth medium at 37 °C for 24 h prior to testing. For the preparation of inoculum, the turbidity of the bacterial suspension was adjusted to 0.5 McFarland standard using a Densi-La-Meter II (Lachema, Brno, Czech Republic) to obtain a final concentration of 10^8 CFU/mL.
(§3) The antibacterial potential of volatile plant-derived compounds in the liquid and vapor phases was determined using a newly developed broth macrodilution volatilization method performed in standard 2 mL microtubes with snap caps (Eppendorf, Hamburg, Germany). Initially, each sample of compound was dissolved in DMSO at maximum concentration of 1% and diluted in the appropriate broth medium. […] The concentration of β-thujaplicin started from 1024 µg/mL and from 128 µg/mL for thymohydroquinone and thymoquninone. In the second step, 90 µL of melted agar was pipetted into rims on the caps (Figure 3a) and inoculated with 5 µL of bacterial suspension after agar solidification. Subsequently, the appropriate concentrations of each sample previously prepared in test tubes were pipetted into microtubes in a final volume of 1500 µL. Then, the microtubes were inoculated with 10 µL of bacterial suspension and closed properly (Figure 3b). Microtubes containing inoculated and non-inoculated media were prepared as growth and purity controls simultaneously. After incubation at 37 °C for 24 h, the MICs were evaluated by the visual assessment of bacterial growth after coloring metabolically active bacterial colonies with MTT dye. The respective volumes of 30 and 375 µL of MTT at a concentration of 600 µg/mL were pipetted into the caps and in the microtubes when the interface of color change from yellow to purple (relative to that of colors in control wells) was recorded in broth and agar (Figure 3c). […] The MIC values were determined as the lowest concentrations that inhibited bacterial growth compared with the compound-free control and are expressed in µg/mL. In the case of the vapor phase, the concentration was also expressed in µg/cm^3 as the weight of the volatile agent per volume unit of a microtube. […] The respective susceptibilities of H. influenzae, S. aureus, S. pneumoniae, and S. pyogenes to ampicillin, oxacillin, amoxicillin, and tetracycline were checked as positive antibiotic controls. All tests were performed as three independent experiments, each carried out in triplicate, and the results were presented as median/modal values. According to the widely accepted norm in MIC testing, the mode and median were used for the final value calculation when triplicate endpoints were within the two- and three-dilution ranges, respectively.

[2] = system: Streptococcus pneumoniae ATCC 49619; test: as above; format: cell-based; details: Streptococcus pneumoniae, ATCC49619
Source text: as §1, §2, §3

[3] = system: normal lung fibroblast cells MRC-5; test: modified MTT cytotoxicity assay; details: for IC50: Homo sapiens, MRC5, 72 h, read-out: IC50 ± SD; for level of cytotoxic effect (WHO classification): classified by IC50 in lung fibroblast cells; for TI: therapeutic index, TI = IC80/x¯ -MIC
Protocol: (§4) Lung fibroblast cell line MRC-5, obtained from ATCC, was propagated in Eagle’s Minimum Essential Medium (EMEM) supplemented with 10% fetal bovine serum (FBS), 2 mM glutamine, 10 µL/mL non-essential amino acids, and 1% penicillin–streptomycin solution (10,000 units/mL of penicillin and 10 mg/mL of streptomycin); all these components were purchased from Sigma-Aldrich. The cells were pre-incubated in 96-well microtiter plates at a density of 2.5 × 10^3 cells per well for 24 h at 37 °C in a humidified incubator in an atmosphere of 5% CO2 in air.
(§5) A modified method based on the metabolization of MTT to blue formazan by mitochondrial dehydrogenases in living lung cells previously described by Mosmann was used. The lung fibroblast cells were treated for 72 h with the tested compounds dissolved in DMSO at a maximum concentration of 1% and diluted in the EMEM medium supplemented with 10% FBS. Twelve two-fold serially diluted concentrations of these agents ranging from 512 to 0.25 µg/mL were prepared. The microtiter plates were covered with EVA capmats^TM at 37 °C in a humidified atmosphere of 5% CO2 in air and cultivated for 72 h. Thereafter, MTT reagent (1 mg/mL) in EMEM solution was added to each well and the plates were incubated for an additional 2 h at 37 °C in a humidified atmosphere of 5% CO2 in air. The media were removed, and the intracellular formazan product was dissolved in 100 µL of DMSO. […] The absorbance was measured at 555 nm using a Tecan Infinite M200 spectrometer (Tecan Group, Mannedorf, Switzerland), and the viability was calculated in comparison to that of the untreated control. Three independent experiments (two replicates each) were performed for each test. […] Furthermore, IC80 was calculated as equivalent to the MIC endpoint for comparison of microbiological and toxicological data. Therapeutic indices (TIs) were defined as the ratio of x¯ -IC80 and x¯ -MIC values with the aim of determining the amount of effective antibacterial agents with the quantity causing toxicity.

[4] = modified MTT cytotoxicity assay; details: human, MRC-5 normal lung fibroblast cells
Protocol: as §4, §5

respiratory pathogens = test: broth macrodilution volatilization method, all four bacteria together; format: cell-based; details: mean value of minimal inhibitory concentrations in broth medium
Source text: as §1, §2
The antibacterial potential of volatile plant-derived compounds in the liquid and vapor phases was determined using a newly developed broth macrodilution volatilization method performed in standard 2 mL microtubes with snap caps (Eppendorf, Hamburg, Germany). Initially, each sample of compound was dissolved in DMSO at maximum concentration of 1% and diluted in the appropriate broth medium. […] After incubation at 37 °C for 24 h, the MICs were evaluated by the visual assessment of bacterial growth after coloring metabolically active bacterial colonies with MTT dye. The respective volumes of 30 and 375 µL of MTT at a concentration of 600 µg/mL were pipetted into the caps and in the microtubes when the interface of color change from yellow to purple (relative to that of colors in control wells) was recorded in broth and agar (Figure 3c). […] The MIC values were determined as the lowest concentrations that inhibited bacterial growth compared with the compound-free control and are expressed in µg/mL. […]

mouse fibroblasts = system: mouse fibroblasts; parameters: method as in PMID 17080016; details: cited from earlier work
[5] = system: Streptococcus pyogenes ATCC 19615; test: broth macrodilution volatilization method (liquid and vapor phase MIC); format: cell-based; details: Streptococcus pyogenes, ATCC19615
Source text: as §1, §2, §3

[6] = system: Haemophilus influenzae ATCC 49247; test: as above; format: cell-based
Source text: as §1, §2, §3

S. aureus [7] = details: cited from earlier work
[8] = system: healthy human lung MRC-5 cell lines; parameters: method as in PMID 28223069; details: cited from earlier work
H. influenzae = system: H. influenzae; parameters: method as in PMID 28223069; details: cited from earlier work
S. aureus [9] = system: S. aureus; parameters: method as in PMID 28223069; details: cited from earlier work
S. pneumoniae = system: S. pneumoniae; parameters: method as in PMID 28223069; details: cited from earlier work
[10] = system: Trichophyton mentagrophytes; parameters: method as in PMID 16648950; details: disc volatilization method; cited from earlier work
[11] = system: normal IMR-90 lung fibroblasts; parameters: method as in PMID 20711342; details: at a concentration of 32.84 µg/mL; cited from earlier work
[12] = ATCC29213, liquid phase, 37 °C, 24 h, read-out: Minimal Inhibitory Concentration, Broth
[13] = liquid phase, 37 °C, 24 h, read-out: Minimal Inhibitory Concentration, Broth
[14] = vapor phase, 37 °C, 24 h, read-out: Minimal Inhibitory Concentration, Agar
[15] = vapor phase, weight of volatile agent per volume unit of microtube, read-out: Minimal Inhibitory Concentration, Agar
[16] = ATCC29213, vapor phase, 37 °C, 24 h, read-out: Minimal Inhibitory Concentration, Agar
[17] = ATCC29213, vapor phase, weight of volatile agent per volume unit of microtube, read-out: Minimal Inhibitory Concentration, Agar
[18] = ATCC49247, liquid phase, 37 °C, 24 h, read-out: Minimal Inhibitory Concentration, Broth

SMILES: Cc1onc(-c2ccccc2)c1C(=O)N[C@@H]1C(=O)N2[C@@H]1SC(C)(C)[C@@H]2C(=O)O [oxacillin, reference compound]
- MIC [1, 12]: 0.5 µg/mL (≈ 1.25 µM)

SMILES: CC1(C)S[C@@H]2[C@H](NC(=O)[C@H](N)c3ccc(O)cc3)C(=O)N2[C@H]1C(=O)O [amoxicillin, reference compound]
- MIC [2, 13]: 0.25 µg/mL (≈ 0.684 µM)

SMILES: CCC1=C[C@@H]2CN(C1)Cc1c([nH]c3ccccc13)[C@@](C(=O)OC)(c1cc3c(cc1OC)N(C)[C@H]1[C@@](O)(C(=O)OC)[C@H](OC(C)=O)[C@]4(CC)C=CCN5CC[C@]31[C@@H]54)C2 [vinorelbin, reference compound]
- IC80 ± SD ([3]; 80% inhibitory concentration of proliferation, 72 h, plates sealed with EVA capmat): >10 µg/mL
- IC50 ± SD ([3]; half maximal inhibitory concentration of proliferation, 72 h, plates sealed with EVA capmat): 0.54 ± 0.26 µg/mL (≈ 0.693 µM)

SMILES: Cc1cc(O)c(C(C)C)cc1O [thymohydroquinone]
- IC50 [3]: 2.64 ± 0.33 µg/mL (≈ 15.9 µM)
- level of cytotoxic effect (WHO classification) [3]: moderate toxicity
- TI [3]: >34.13
- IC80 at 72 h [4]: > 512 µg/mL
- x¯ -MIC (respiratory pathogens): 15 µg/mL
- cell growth inhibition (mouse fibroblasts; at 10 µg/mL): 21%
- cell growth inhibition (mouse fibroblasts; at 100 µg/mL): 63%
- MIC [2, 13]: 16 µg/mL (≈ 96.3 µM)
- MIC [2, 14]: 32 µg/mL (≈ 193 µM)
- MIC [2, 15]: 20 µg/mL (≈ 120 µM)
- MIC [5, 13]: 32 µg/mL (≈ 193 µM)
- MIC [5, 14]: 32 µg/mL (≈ 193 µM)
- MIC [5, 15]: 20 µg/mL (≈ 120 µM)
- MIC [1, 12]: 8 µg/mL (≈ 48.1 µM)
- MIC [1, 16]: 16 µg/mL (≈ 96.3 µM)
- MIC [1, 17]: 10 µg/mL (≈ 60.2 µM)
- MIC ([6]; ATCC49247, 24 h, read-out: Minimal Inhibitory Concentration, Agar): 8 µg/mL (≈ 48.1 µM)
- MIC ([6]; ATCC49247, 24 h, read-out: Minimal Inhibitory Concentration, Broth): 4 µg/mL (≈ 24.1 µM)
- MIC ([6]; ATCC49247, read-out: Minimal Inhibitory Concentration, Agar): 5 µg/mL (≈ 30.1 µM)
- MIC (S. aureus [7]; S. aureus ATCC 25923): 400 µg/mL (≈ 2410 µM)

SMILES: CC1(C)S[C@@H]2[C@H](NC(=O)[C@H](N)c3ccccc3)C(=O)N2[C@H]1C(=O)O [ampicillin, reference compound]
- MIC [6, 18]: 1 µg/mL (≈ 2.86 µM)

SMILES: CC1=CC(=O)C(C(C)C)=CC1=O [thymoquinone]
- IC50 [3]: 1.21 ± 0.24 µg/mL (≈ 7.37 µM)
- level of cytotoxic effect (WHO classification) [3]: toxic
- TI [3]: 1.00
- IC80 at 72 h [4]: 15 ± 4.46 µg/mL (≈ 91.3 µM)
- x¯ -MIC (respiratory pathogens): 15 µg/mL
- IC50 [8]: 1.70 µg/mL (≈ 10.4 µM)
- MIC, liquid phase (H. influenzae; liquid phase): 8 µg/mL (≈ 48.7 µM)
- MIC, vapor phase (H. influenzae; vapor phase): 8 µg/mL (≈ 48.7 µM)
- MIC, liquid phase (S. aureus [9]; liquid phase): 16 µg/mL (≈ 97.4 µM)
- MIC, vapor phase (S. aureus [9]; vapor phase): 16 µg/mL (≈ 97.4 µM)
- MIC, liquid phase (S. pneumoniae; liquid phase): 16 µg/mL (≈ 97.4 µM)
- MIC, vapor phase (S. pneumoniae; vapor phase): 32 µg/mL (≈ 195 µM)
- vapor activity [10]: very potent vapor activity
- effect on viability [11]: did not alter the viability
- MIC [2, 13]: 16 µg/mL (≈ 97.4 µM)
- MIC [2, 14]: 16 µg/mL (≈ 97.4 µM)
- MIC [2, 15]: 10 µg/mL (≈ 60.9 µM)
- MIC [5, 13]: 32 µg/mL (≈ 195 µM)
- MIC [5, 14]: 32 µg/mL (≈ 195 µM)
- MIC [5, 15]: 20 µg/mL (≈ 122 µM)
- MIC [1, 12]: 8 µg/mL (≈ 48.7 µM)
- MIC [1, 16]: 16 µg/mL (≈ 97.4 µM)
- MIC [1, 17]: 10 µg/mL (≈ 60.9 µM)
- MIC [6, 18]: 4 µg/mL (≈ 24.4 µM)
- MIC ([6]; ATCC49247, vapor phase, 37 °C, 24 h, read-out: Minimal Inhibitory Concentration, Agar): 8 µg/mL (≈ 48.7 µM)
- MIC ([6]; ATCC49247, vapor phase, weight of volatile agent per volume unit of microtube, read-out: Minimal Inhibitory Concentration, Agar): 5 µg/mL (≈ 30.4 µM)
- MIC (S. aureus [7]; S. aureus ATCC 29213 and ATCC 25923): 8 µg/mL (≈ 48.7 µM)

SMILES: CN(C)[C@@H]1C(O)=C(C(N)=O)C(=O)[C@@]2(O)C(O)=C3C(=O)c4c(O)cccc4[C@@](C)(O)[C@H]3C[C@@H]12 [tetracycline, reference compound]
- MIC [5, 13]: 0.25 µg/mL (≈ 0.563 µM)
